Results reported in US8912184B1, “Therapeutic and diagnostic methods” (Alzheimer's Institute of America, Inc., priority 2010, dated 2014).
Like-named read-outs stand apart in the source and are kept apart here.

Tested on: HCT116 cells
Experiment: Nicotinic Acid Rescue Cytotoxicity Assay, first method: cytotoxicity to HCT116 cells in presence and absence of 10 μM nicotinic acid
Type: cell-based
Conditions: Homo sapiens, HCT-116, 72 h
Procedure: Additionally, Nicotinic Acid (NA) rescue of cytotoxicity of Nampt inhibitors was assessed by two distinct methods. In the first method, Nampt1 inhibitor cytotoxicity was evaluated in the presence and absence of exogenous nicotinic acid (NA) at a fixed concentration. […] Twenty four hours after cells were plated, the media was removed and replaced with media containing 10 μM nicotinic acid. Compounds were then immediately added. Cell viability was then assessed at 72 h.
Using the first of the two assays described above, the 90 compounds shown in Table 5, below, were tested for cytotoxicity towards Naprt1-proficient HCT116 cells, and for the ability of NA to block the observed cytotoxicity (or “rescue” the cells from the cytotoxic activity of the tested compound). The compounds listed are referred to by a unique rescue analysis example number (i.e., R1, R2 . . . R90) that is used as a reference number in Table 4, in which the results of the cytotoxicity and rescue assays are presented.

[1] = absence of nicotinic acid, read-out: HCT116 72 h cytotoxicity
[2] = presence of 10 μM nicotinic acid, read-out: HCT116 72 h cytotoxicity with 10 μM Nicotinic Acid

Compound | IC50 [1] [nM] | IC50 [2] [nM]
O=C(NCc1cccnc1)Nc1ccc(COc2ccccc2-c2cccnc2)cc1 [Example R83, 1-(Pyridin-3-ylmethyl)-3-(4-{[2-(pyridin-3-yl)phenoxy]methyl}phenyl)urea] | 1.5 | > 5000
O=C(NCc1cccnc1)Nc1ccc(NC(=O)c2ccccc2-c2ccccc2)cc1 [Example R55, N-(4-{[(pyridin-3-ylmethyl)carbamoyl]amino}phenyl)biphenyl-2-carboxamide] | 48.8 | > 1000
Cc1ccccc1-c1ccccc1CNc1ccc(C(=O)NCc2cccnc2)cc1 [Example R28, 4-{[(2′-Methylbiphenyl-2-yl)methyl]amino}-N-(pyridin-3-ylmethyl)benzamide] | 335 | 25000
O=C(Nc1ccc(C(=O)NCc2cccnc2)cc1)Nc1ccccc1-c1ccccc1 [Example R11, 4-[(Biphenyl-2-ylcarbamoyl)amino]-N-(pyridin-3-ylmethyl)benzamide] | 424 | > 50000
C/C=C/CN(Cc1ccccc1Cl)c1ccc(C(=O)NCc2cccnc2)cc1 [Example R43, 4-[(2E)-But-2-en-1-yl(2-chlorobenzyl)amino]-N-(pyridin-3-ylmethyl)benzamide] | 98.6 | > 10000
O=C(NCc1cccnc1)Nc1ccc(COc2ccccc2-c2cccc(F)c2)cc1 [Example R82, 1-(4-{[(3′-Fluorobiphenyl-2-yl)oxy]methyl}phenyl)-3-(pyridin-3-ylmethyl)urea] | 1.9 | > 5000
O=C(NCc1cccnc1)Nc1ccc(COc2ccccc2-c2ccccc2)cc1 [Example R64, 1-{4-[(Biphenyl-2-yloxy)methyl]phenyl}-3-(pyridin-3-ylmethyl)urea] | 0.2 | > 10000
O=C(NCCCCCCOc1ccc(Cl)cc1)Nc1ccncc1 [Example R79, 1-[6-(4-Chlorophenoxy)hexyl]-3-pyridin-4-ylurea] | 88.9 | > 5000
O=C(NCc1cccnc1)Nc1ccc(NS(=O)(=O)c2c(F)cc(F)cc2Br)cc1 [Example R61, 2-bromo-4,6-difluoro-N-(4-{[(pyridin-3-ylmethyl)carbamoyl]amino}phenyl)benzene-sulfonamide] | 1.8 | > 1000
O=C(NCc1cccnc1)Nc1ccc(NS(=O)(=O)c2ccc3ccccc3c2)cc1 [Example R46, N-(4-{[(Pyridin-3-ylmethyl)carbamoyl]amino}phenyl) naphthalene-2-sulfonamide] | 64.8 | > 10000
S=C(NCCCCCCOc1ccc(Cl)cc1)Nc1cccnc1 [Example R39, 1-[6-(4-Chlorophenoxy)hexyl]-3-pyridin-3-ylthiourea] | 1620 | > 10000
N#C/N=C(\NCCCNS(=O)(=O)c1ccccc1-c1ccccc1)Nc1ccncc1 [Example R66, N-{3-[N″-cyano-N′-(pyridin-4-yl)carbamimidamido]propyl}biphenyl-2-sulfonamide] | 1.3 | 5000
CC(C)c1cccc(-c2ccccc2CNc2ccc(C(=O)NCc3cccnc3)cc2)c1 [Example R25, 4-({[3′-(Propan-2-yl)biphenyl-2-yl]methyl}amino)-N-(pyridin-3-ylmethyl)benzamide] | 8330 | 37000
O=C(CNc1ccccc1Oc1ccccc1)Nc1ccc(C(=O)NCc2cccnc2)cc1 [Example R19, 4-{[N-(2-Phenoxyphenyl)glycyl]amino}-N-(pyridin-3-ylmethyl)benzamide] | 586 | > 50000
N#C/N=C(/NCCCCCCOc1ccc(Cl)cc1)Nc1ccncc1 [Example R5, 1-[6-(4-Chlorophenoxy)hexyl]-2-cyano-3-pyridin-4-ylguanidine] | 1.6 | > 10000
CC(C)CCN(Cc1ccccc1Cl)c1ccc(C(=O)NCc2cccnc2)cc1 [Example R42, 4-[(2-Chlorobenzyl)(3-methylbutyl)amino]-N-(pyridin-3-ylmethyl)benzamide] | 387 | > 10000
O=C(NCc1cccnc1)Nc1ccc(COc2ccccc2-c2ccncc2)cc1 [Example R81, 1-(Pyridin-3-ylmethyl)-3-(4-{[2-(pyridin-4-yl)phenoxy]methyl}phenyl)urea] | 5.4 | > 5000
CC(C)=CCN(Cc1ccccc1Cl)c1ccc(C(=O)NCc2cccnc2)cc1 [Example R44, 4-[(2-Chlorobenzyl)(3-methylbut-2-en-1-yl)amino]-N-(pyridin-3-ylmethyl)benzamide] | 16.3 | > 10000

Compound | IC50 [1] [nM] | IC50 [2] [nM]
O=C(NCc1cccnc1)Nc1ccc(NS(=O)(=O)c2cc(C(F)(F)F)ccc2F)cc1 [Example R72, 2-fluoro-N-(4-{[(pyridin-3-ylmethyl)carbamoyl]amino}phenyl)-5-(trifluoromethyl)benzenesulfonamide] | 15 | > 5000
C#CCN(Cc1cc2c(=O)n(C)c(CN3CCN(CCN)CC3)nc2cc1Cl)c1ccc(C(=O)NCc2cccnc2)cc1 [Example R2, 4-{[(2-{[4-(2-Aminoethyl)piperazin-1-yl]methyl}-7-chloro-3-methyl-4-oxo-3,4-dihydroquinazolin-6-yl)methyl](prop-2-yn-1-yl)amino}-N-(pyridin-3-ylmethyl)benzamide] | 18.3 | > 50000
O=C(NCc1cccnc1)Nc1ccc(NS(=O)(=O)c2ccccc2-c2ccccc2)cc1 [Example R49, N-(4-{[(Pyridin-3-ylmethyl)carbamoyl]amino}phenyl)biphenyl-2-sulfonamide] | 4.9 | > 10000
C#CCN(Cc1ccccc1C(F)(F)F)c1ccc(C(=O)NCc2cccnc2)cc1 [Example R10, 4-{Prop-2-yn-1-yl[2-(trifluoromethyl)benzyl]amino}-N-(pyridin-3-ylmethyl)benzamide] | 1110 | > 5000
O=C(NCc1cccnc1)Nc1ccc(NS(=O)(=O)c2ccc(F)cc2-c2ccccc2)cc1 [Example R68, 5-fluoro-N-(4-{[(pyridin-3-ylmethyl)carbamoyl]amino}phenyl)biphenyl-2-sulfonamide] | 2.1 | > 5000
O=C(NCc1cccnc1)Nc1ccc(OCc2ccccc2-c2ccccc2)cc1 [Example R77, 1-[4-(biphenyl-2-ylmethoxy)phenyl]-3-(pyridin-3-ylmethyl)urea] | 1.7 | > 5000
O=C(NCc1cccnc1)Nc1ccc(NS(=O)(=O)c2cc(C(F)(F)F)ccc2Cl)cc1 [Example R69, 2-chloro-N-(4-{[(pyridin-3-ylmethyl)carbamoyl]amino}phenyl)-5-(trifluoromethyl)benzenesulfonamide] | 1.3 | > 1000
N#C/N=C(/NCc1ccc(COc2ccccc2-c2ccccc2)cc1)Nc1ccncc1 [Example R70, 1-{4-[(biphenyl-2-yloxy)methyl]benzyl}-2-cyano-3-pyridin-4-ylguanidine] | 1.1 | > 5000
N#C/N=C(/NCCCCNC(=O)COc1ccccc1-c1ccccc1)Nc1ccncc1 [Example R78, 2-(Biphenyl-2-yloxy)-N-(4-{[(Z)-(cyanoamino)(pyridin-4-ylamino)methylidene]amino}butyl)acetamide] | 0.5 | > 5000
O=C(NCc1cccnc1)Nc1ccc(S(=O)(=O)Nc2ccccc2Cl)cc1 [Example R54, N-(2-chlorophenyl)-4-{[(pyridin-3-ylmethyl)carbamoyl]amino} benzenesulfonamide] | 71.5 | > 10000
O=C(NCc1cccnc1)Nc1ccc(CNc2ccccc2-c2ccccc2)cc1 [Example R86, 1-{4-[(Biphenyl-2-ylamino)methyl]phenyl}-3-(pyridin-3-ylmethyl)urea] | 0.4 | 4000
O=C(NCc1cccnc1)Nc1ccc(NS(=O)(=O)c2ccc([N+](=O)[O-])c(C(F)(F)F)c2)cc1 [Example R50, 4-Nitro-N-(4-{[(pyridin-3-ylmethyl)carbamoyl]amino}phenyl)-3-(trifluoromethyl)benzenesulfonamide] | 6.7 | > 10000
C#CCN(Cc1cc2c(=O)n(C)c(CN3CCN(C)CC3)nc2cc1Cl)c1ccc(C(=O)NCc2cccnc2)cc1 [Example R1] | 0.7 | > 10000
O=C(NCCCCCCOc1ccc(Cl)cc1)Nc1ccc(F)c(F)c1 [Example R41, 1-[6-(4-Chlorophenoxy)hexyl]-3-(3,4-difluorophenyl)urea] | 7080 | 6000
Cc1cc(S(=O)(=O)Nc2ccc(NC(=O)NCc3cccnc3)cc2)c(Cl)cc1Cl [Example R76, 2,4-dichloro-5-methyl-N-(4-{[(pyridin-3-ylmethyl)carbamoyl]amino}phenyl)benzene-sulfonamide] | 1.3 | > 5000
O=C(NCc1cccnc1)c1ccc(NCc2ccccc2-c2ccccc2)cc1 [Example R27, 4-[(Biphenyl-2-ylmethyl)amino]-N-(pyridin-3-ylmethyl)benzamide] | 87.1 | 37000
N#C/N=C(\NCCCCCCOc1ccc(Cl)cc1)Nc1ccc(Br)nc1 [Example R36, 1-(6-Bromopyridin-3-yl)-2-[6-(4-chlorophenoxy)hexyl]-3-cyanoguanidine] | 6000 | > 10000
CC(C)=CCN(Cc1cc2c(=O)n(C)cnc2cc1Cl)c1ccc(C(=O)NCc2cccnc2)cc1 [Example R52, 4-{[(7-Chloro-3-methyl-4-oxo-3,4-dihydroquinazolin-6-yl)methyl](3-methylbut-2-en-1-yl)amino}-N-(pyridin-3-ylmethyl)benzamide] | 7.3 | > 10000
